Data taken from PubChem BioAssay (NCI).
Several values for one entry are separate records, joined by “and”; a condition that tells them apart may be missing. Equal entries are not always repeated.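 How tested: cells in 96-well plates exposed to compound for 48 hours at five concentrations. At the GI50, growth is halved. TGI: total growth inhibition.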

Columns and labels:
Assay in all cases: NCI anticancer screen, dose series, 48 h
SNB-75 CNS = system: SNB-75 CNS
ACHN renal = system: ACHN renal
SR leukemia = system: SR leukemia
HT29 colon = system: HT29 colon
786-0 renal = system: 786-0 renal
RXF 393 renal = system: RXF 393 renal
A549 NSCLC = system: A549 NSCLC
NCI-H226 lung = system: NCI-H226 lung
COLO 205 colon = system: COLO 205 colon
SK-MEL-28 melanoma = system: SK-MEL-28 melanoma

SMILES	TGI (SNB-75 CNS)	TGI (ACHN renal) [µM]	TGI (SR leukemia) [µM]	TGI (HT29 colon)	TGI (786-0 renal)	TGI (RXF 393 renal)	TGI (A549 NSCLC)	TGI (NCI-H226 lung)	TGI (COLO 205 colon)	TGI (SK-MEL-28 melanoma)	GI50 (SNB-75 CNS)	GI50 (ACHN renal) [µM]	GI50 (SR leukemia) [µM]	GI50 (HT29 colon) [µM]	GI50 (786-0 renal) [µM]	GI50 (RXF 393 renal) [µM]	GI50 (A549 NSCLC) [µM]	GI50 (NCI-H226 lung) [µM]	GI50 (COLO 205 colon) [µM]	GI50 (SK-MEL-28 melanoma) [µM]
CC1CCC2C(C)C(=O)OC2C2(C)C(=O)C=CC12 (stereo unspecified)	> 10 µM	> 10	> 10	> 10 µM	> 10 µM	> 10 µM	> 10 µM	> 10 µM	> 10 µM	> 10 µM	–	–	–	–	–	–	–	–	–	–
O=C1NC(=NCCc2ccc(Cl)cc2)S/C1=C\c1ccc2ncccc2c1	> 21.6 µM	> 25	> 25	> 25 µM	> 25 µM	> 25 µM	> 25 µM	> 25 µM	> 25 µM	> 25 µM	6.77 µM	24.6	6.92	> 13	14.3	11	15	> 25	15.3	> 25
N#C/C(=C\c1ccc2[nH]ccc2c1)C(=O)NCCCCNC(=O)/C(C#N)=C/c1ccc2[nH]ccc2c1	> 31.6 µM	> 31.6	> 31.6	> 31.6 µM	> 31.6 µM	> 10 µM	> 100 µM	> 31.6 µM	> 31.6 µM	> 31.6 µM	–	–	–	–	–	–	–	–	–	–
OCc1ccc(N(Cc2ccc(F)cc2)Cc2ccc(F)cc2)cc1Cl	22 µM	23	24.4	23.3 µM	25.5 µM	26.3 µM	22.1 µM	2.03 µM	24.4 µM	27.6 µM	7.74 µM	10.9	5.51	9.66	11.6	12.7	6.72	0.466	11.7	13.9
C[C@@]1(F)[C@H](O)[C@@H](CO)O[C@H]1n1ccc(=O)[nH]c1=O	> 100 µM	> 100	> 100	> 100 µM	> 100 µM	> 100 µM	> 100 µM	> 100 µM	> 100 µM	> 100 µM	> 100 µM	> 100	> 100	> 100	> 100	> 100	> 100	> 100	> 100	> 100
[N-]=[N+]=CC(=O)CCC(N)C(=O)O (stereo unspecified)	191 µM	> 250	> 231	75.7 µM	> 250 µM	210 µM	> 250 µM	> 250 µM	> 128 µM	202 µM	39.4 µM	5.54	–	0.727	7.17	24.6	2.78	–	0.812	15.3
CCCCNC(c1ccc(Cl)cc1)C(O)c1ccc(Cl)cc1 (stereo unspecified)	11.4 µM	7.36	3.75	2.74 µM	3.95 µM	3.65 µM	17.8 µM	25.1 µM	3.25 µM	4.5 µM	1.93 µM	2.46	1.07	0.792	1.59	1.49	3.87	6.58	1.56	2.06
CN1CCCC2[C@@H]3CCC4c5nonc5CC[C@]4(C)C3CC[C@@]21C (stereo partly specified)	> 100 µM	> 100	> 100	> 100 µM	> 100 µM	> 100 µM	> 100 µM	> 100 µM	> 100 µM	> 100 µM	–	–	–	–	–	–	–	–	–	–
C[C@@H]1C[C@@H]([C@H](O)CC2CC(=O)NC(=O)C2)C(=O)[C@@H](C)C1	4.93 µM and 1.43 µM	–	–	1.97 µM and 2.4 µM	3.31 µM and 3.56 µM	1.48 µM and 0.462 µM	1.76 µM and 1.73 µM	7.26 µM and 4.86 µM	2 µM and 1.47 µM	2.01 µM and 1.34 µM	0.333 µM	0.155	0.28	0.272	0.186	0.135	0.204	0.326	0.224	0.249
O=c1c2cccnc2ncn1CCCN1CCCCC1	> 100 µM	> 100	> 100	> 100 µM	> 100 µM	> 100 µM	> 100 µM	> 100 µM	> 100 µM	> 100 µM	–	–	–	–	–	–	–	–	–	–
O=c1c(Cc2ccccc2)c(O)cc2n1CCC2	> 100 µM	> 100	> 100	> 100 µM	> 100 µM	> 100 µM	> 100 µM	> 100 µM	> 100 µM	> 100 µM	–	–	–	–	–	–	–	–	–	–
N=C1CCCC1C(=S)SCCC(N)=O (stereo unspecified)	> 100 µM	> 100	> 100	> 100 µM	> 100 µM	> 100 µM	> 100 µM	> 100 µM	> 100 µM	> 100 µM	–	–	–	–	–	–	–	–	–	–
O=S(=O)(NC1=NCCN1C(=S)SN1CCn2c1nsc2=S)c1ccc(Cl)cc1	35.6 µM	18.6	6.51	> 100 µM	32.4 µM	34.4 µM	37.8 µM	20.7 µM	14.8 µM	20.7 µM	12.3 µM	6.05	2.4	7.34	16.6	3.09	12.8	5.77	4.36	4.85
COc1ccc2[nH]c(C(=O)N3CCN(C(=O)OCc4ccc5c(Cl)cc(Cl)c(O)c5n4)CC3)cc2c1	2.4 µM	1.87	1.05	2.48 µM	2.82 µM	1.81 µM	3.39 µM	2.56 µM	2.48 µM	2.94 µM	1.08 µM	0.592	0.232	1.08	1.37	0.557	1.55	1.18	0.85	1.58
O=C1c2cccc3cccc(c23)C(=O)N1CCCCCN1CCN(CCN=c2cc3n(-c4ccc(Cl)cc4)c4ccccc4nc-3cc2Nc2ccc(Cl)cc2)CC1	39.6 µM	> 50	25.4	> 50 µM	30.7 µM	> 50 µM	> 50 µM	> 50 µM	> 50 µM	> 50 µM	14.5 µM	2.88	7.54	9.13	9.6	11.2	25.9	35.6	2.38	18.9
O=C(CC1=Nc2nnc(CCCCCCCc3nnc4n3C(=O)C(CC(=O)c3ccc5ccccc5c3)=N4)n2C1=O)c1ccc2ccccc2c1	> 100 µM	> 100	> 100	> 100 µM	> 100 µM	> 100 µM	> 100 µM	> 100 µM	> 100 µM	> 100 µM	–	–	–	–	–	–	–	–	–	–

SMILES	TGI (SNB-75 CNS)	TGI (ACHN renal) [µM]	TGI (SR leukemia) [µM]	TGI (HT29 colon)	TGI (786-0 renal)	TGI (RXF 393 renal)	TGI (A549 NSCLC)	TGI (NCI-H226 lung)	TGI (COLO 205 colon)	TGI (SK-MEL-28 melanoma)	GI50 (SNB-75 CNS)	GI50 (ACHN renal) [µM]	GI50 (SR leukemia) [µM]	GI50 (HT29 colon) [µM]	GI50 (786-0 renal) [µM]	GI50 (RXF 393 renal) [µM]	GI50 (A549 NSCLC) [µM]	GI50 (NCI-H226 lung) [µM]	GI50 (COLO 205 colon) [µM]	GI50 (SK-MEL-28 melanoma) [µM]
CSc1nc(Nc2cccc(NC(=O)CCl)c2)c(C#N)c(-c2cccc([N+](=O)[O-])c2)n1	4.8 µM	1.91	> 100	5.53 µM	43.7 µM	3.22 µM	49.7 µM	6.32 µM	3.54 µM	4.28 µM	0.682 µM	0.534	0.387	2.36	2.94	1.54	16.6	2.15	1.82	2.15
c1ccc2c(c1)[nH]c1c2nc2ccccn21	> 100 µM	> 100	> 100	> 100 µM	> 100 µM	> 100 µM	> 100 µM	> 100 µM	> 100 µM	> 100 µM	45.6 µM and > 100 µM	–	–	–	–	–	–	–	–	–
Cc1c(C)c([N+](=O)[O-])c2c(c1N)C(=O)c1ccccc1C2=O	> 100 µM	> 100	> 100	> 100 µM	> 100 µM	> 100 µM	> 100 µM	> 100 µM	> 100 µM	> 100 µM	–	–	–	–	–	–	–	–	–	–
CC(=O)N1[C@H](C(=O)O)CS[C@H]1c1ccc(F)cc1	> 100 µM	> 100	> 100	> 100 µM	> 100 µM	> 100 µM	> 100 µM	> 100 µM	> 100 µM	> 100 µM	–	–	–	–	–	–	–	–	–	–
Oc1ccc(Cl)cc1C=Nc1cnc2ccccc2c1	> 87.6 µM	> 100	> 100	> 100 µM	> 100 µM	> 100 µM	> 100 µM	> 100 µM	> 100 µM	> 100 µM	–	–	–	–	–	–	–	–	–	–
COC1=CC(c2ccc[nH]2)=N/C1=C\c1[nH]c(C)c(C(=O)CCCCCCCCC(=O)O[C@H]2CC[C@H]3C4CCc5cc(O)ccc5C4CC[C@]23C)c1C (stereo partly specified)	2.79 µM	> 50	> 20.2	> 50 µM	> 12.8 µM	24.5 µM	8.88 µM	> 11.4 µM	> 50 µM	> 50 µM	0.29 µM	1.16	0.209	0.21	0.787	1.21	1.11	2.99	0.332	0.841
O=C(Nc1n[nH]c2cc(-c3cc(F)ccc3F)ccc12)C1CC1	> 25 µM	> 25	> 25	> 25 µM	> 25 µM	> 25 µM	> 25 µM	> 25 µM	> 25 µM	> 25 µM	> 15.8 µM	> 25	6.38	9.42	> 25	17.3	11.4	18.4	13.1	> 14.5
CC(C)(C)C[C@H]1N[C@@H](C(=O)NC2CCC(O)CC2)[C@H](c2cccc(Cl)c2F)[C@@]12C(=O)Nc1cc(Cl)ccc12 (stereo partly specified)	17.9 µM	10.1	5.45	19.9 µM	15.4 µM	17.2 µM	16.4 µM	1.04 µM	16 µM	11.7 µM	3.78 µM	0.375	0.189	4.34	4.22	3.38	0.778	0.238	3.67	3.28
C=C1C(=O)O[C@@H]2/C=C(/C)[C@@H](OC(C)=O)C/C=C(\C)C(O)[C@@H](OC(=O)/C(C)=C\C)C12 (stereo partly specified)	> 100 µM	40.8	55.6	40.1 µM	29.7 µM	79.4 µM	> 100 µM	> 100 µM	32 µM	32.1 µM	–	–	–	–	–	–	–	–	–	–
COc1cc(O)ccc1C(=S)SC	> 100 µM	> 100	> 100	> 100 µM	> 100 µM	> 100 µM	> 100 µM	76.9 µM	> 100 µM	> 100 µM	–	–	–	–	–	–	–	–	–	–
Cc1cccc(C2NC(=O)c3ccccc3N2)c1 (stereo unspecified)	> 100 µM	> 100	> 100	> 26.3 µM	> 100 µM	> 23.7 µM	> 100 µM	50.5 µM	> 100 µM	> 100 µM	–	–	–	–	–	–	–	–	–	–
CCCCCCCC(=O)OCC/C=C/C1OC1C1OC(=O)/C=C\C=C\C(=O)N(C(C)=O)C(=O)/C=C(/C)CCC2OC2C1OC(=O)NC(C)=O (stereo unspecified)	17.9 µM	9.94	> 25	14.4 µM	11.1 µM	9.45 µM	> 25 µM	> 25 µM	6.86 µM	14.3 µM	4.79 µM	2.14	4.48	4.03	4.12	4.34	21.6	18.9	3.27	5.12
CC(=O)Nc1ccc(C2CC(c3ccc([N+](=O)[O-])cc3)=Nc3ccccc3S2)cc1 (stereo unspecified)	> 100 µM	32.1	61.9	28.7 µM	31.1 µM	34.9 µM	56 µM	86.3 µM	> 100 µM	38.4 µM	–	–	–	–	–	–	–	–	–	–
Cn1c(I)c(C#C[Si](C)(C)C)c(=O)n(C(=O)c2ccccc2)c1=O	20.5 µM	7.83	–	15.8 µM	11.7 µM	3.14 µM	24.8 µM	21.7 µM	3.2 µM	3.8 µM	4.2 µM	2.9	1.89	3.32	3.49	1.64	5.63	7.44	1.55	2.03
CN(C)C(=S)/N=c1\ss/c(=N\C(=S)N(C)C)n1-c1cccc(Cl)c1	> 100 µM	> 100	> 100	> 100 µM	> 100 µM	> 100 µM	> 100 µM	> 100 µM	> 100 µM	> 100 µM	–	–	–	–	–	–	–	–	–	–
